Reference: patent publication US5723494A, “Derivatives of glutamic and aspartic acids, a method of preparing them, and their use as drugs for enhancing memory and learning” (priority 1993, dated 1998)
Read-outs that look alike come from different tables or passages of the source.

Experiments:
[1] = Antidepressant activity in the behavioural despair test in the mouse; type: in vivo, mouse (male CD1); details: for inhibition in vivo at 3 mg/kg: 3 mg/kg IP; for inhibition in vivo at 10 mg/kg: 10 mg/kg IP; for inhibition in vivo at 30 mg/kg: 30 mg/kg IP
Description: 5) Antidepressant activity in the "behavioural despair test" Another interesting aspect of the pharmacological activity of these products is the potent antidepressant activity which some of them display in an experimental model in the mouse, in which a state of depression is induced experimentally by the method of Porsolt et al. (Arch. Int. Pharmacodyn. 229, p. 327-336 (1977)). Male CDl mice which weighed about 20-25 g and had not fasted were used. The test consisted of inducing a state of depression in the animal which was subjected to forced swimming in a glass cylinder from which it could not escape. After a short period of vigorous activity the mouse adopted a characteristic posture of immobility which was easily identifiable; this immobility is reduced by antidepressant drugs. 1 l glass beakers, filled to 700 ml with water at a temperature of 25° C. were used for the test. The mice, 8 per group, were treated intraperitoneally with the drug under test, 30 minutes before the test. At time 0, each animal was immersed in a beaker and, after one minute during which all moved about swimming vigorously in order to escape, regardless of treatment, the observer, who was unaware of the treatment, assigned the following points: 0=animal immobile 1=minimum movement to remain afloat 2=vigorous swimming The greater the antidepressant activity of the drug, the more the animals will move about in order to try to escape from the water. The points were assigned every 15 sec for a total period of 5 min with a total of 20 observations. The antidepressant activity was determined with the use of various doses of the compound by the regression method as the ED50, that is, the dose in mg/kg of the compound which could antagonise the animal's immobility time by 50%.

[2] = Memory-enhancement activity in the passive avoidance test in the rat; type: in vivo, rat (male Wistar); details: for change in vivo at 0.1 mg/kg / change in vivo at 1 mg/kg / change in vivo at 10 mg/kg: 96 h, read-out: % variation vs controls (FS) in step through latency
Protocol: 2) Memory-enhancement activity in the "passive avoidance" test in the rat
A "passive avoidance" model was used, which required a single "step-through" situation and a retest of the "retention memory" 72 h after the training.
Male Wistar rats which weighed about 200 g and had not fasted, were used. The test consisted of evaluating the degree of memory of an animal after it had been trained as follows.
The equipment used was a shuttle box modified thus: one compartment was lined with black card including the cover, and a 60 W lamp was disposed above the other, spaced from the grid floor by about 40 cm. The two compartments were divided by an automatic guillotine-like door. Each animal was placed in the compartment in the light with the guillotine-likedoor open. From this moment, the time taken by the rat to go into the compartment lined with black card (the dark compartment) (the step-throughlatency=STL) was measured. The animals which took more than 30 sec to go into the dark were discarded. Once they had gone into the dark, the door was lowered automatically and a=0.1 mA shock lasting 5 sec (a foot shock=FS) started. After 10 sec, the animal was removed from the shuttle box.
Upon completion, the animals were selected randomly in homogeneous groups and treated with the products.
The retest to determine memory was made after 72 hours. The products were administered chronically in the preselected manner twice per day and the last treatment 30 min before the retest (6 treatments altogether).
The memory-retention test (the retest) consisted of placing each animal, treated 30 min beforehand with a physiological solution or with the product, in the compartment which was not lined with black card for 30 sec.
The results are expressed as the percentage variation of the STL (in seconds) of the groups treated in comparison with the control group by means of this formula: [formula]

[3] = target: excitor amino-acid receptors of cortical membranes ("forebrain") of rats; test: Inhibition of the specific binding of [3H]-glutamate to rat forebrain membranes; details: rat forebrain membranes, 20 min, 37° C., pH 7.1
Description: 6) Studies on binding to rat "forebrain" membranes
L-glutamate recognizes all three receptor subtypes indicated above, al though not selectively. It is therefore desirable to evaluate the capacity of each of the compounds of the invention to interact with the excitor amino-acid receptors of the CNS.
"Forebrain", that is, the cerebral cortex and the hippocampus, were selected as the receptor tissue and ^3 H-L-glutamate as the ligand for marking this heterogenous receptor population.
Rat cerebral tissue (forebrain without striated tissue) was therefore homogeneised cold in tris buffer at pH 7.4. After washing and centrifuging, the final pellet was resuspended in 50 volumes of tris HCl binding buffer at 7.1. 0.5 ml of receptor membrane thus obtained were then incubated, together with the radioactive tracer and the compounds under test, for 20 min at 37° C. The reaction was terminated by separating the bound radio-ligand from the free radio-ligand by filteration on glass-fibre filters which, after washing, were counted in a liquid scintillator (a β-counter) thus determining the radioactivity associated with the pellet. The specific binding was determined as the difference between the binding in the absence and in the presence of cold 3.6 mM L-glutamate.

[4] = Antiamnesic activity in the mouse (step-down passive avoidance, amnesia induced by ECS); type: in vivo, mouse (CD1 male)
Description: 1) Antiamnesic activity in the mouse (step-down passive avoidance)
An electroconvulsive shock (ECS) produces retrograde amnesia in the test animal if applied immediately after the training received, for example, a harmful stimulus of a suitable intensity.
The object of the experiment was to study the effects of the compounds of the invention in antagonizing the amnesic effect of an ECS on the short-term memory consolidation process.
CD1 male mice which weighed about 30-35 g, and had not fasted were used. The equipment used was a rectangular plexiglass cage (21×21×40cm) with an electrifiable grid floor and a wooden cube (4×4×4 cm) fixed in the centre of the cage. The animals were treated orally with the product under test 60 minutes before the training.
The mouse was placed delicately on the wooden cube and the time it took to descend to the grid floor (SDL=step-down latency) was measured. When all four of the animal's paws were resting on the floor the continuous 0.2 mA shock started and the time taken by The mouse to remount the wooden cube (EL=escape latency) was measured.
The animals with an SDL of between 3 and 30 sec and with an EL of between 3 and 60 sec were used for retesting.
Immediately afterwards, a transcorneal ECS was applied with the use of the following parameters: amperage 15 mA, frequency 50 Hz, duration of the train of pulses 0.4 sec. duration of each individual pulse 1 msec., interval between pulses 20 msec. As well as the groups treated with ECS, a control group without ECS and a control group with ECS were used.
The retest was carried out after 24 h.
The results are expressed as the percentage variation of the SDL of the treated groups in comparison with the control group by means of this formula: [formula]

[5] = Antagonism of the amnesic effect induced by scopolamine in the passive avoidance test in the rat; type: in vivo; details: for % Effect vs controls / Latency (STL): FS + SCOP
Protocol: 4) Antagonism of the amnesic effect induced by scopolamine in the "passive avoidance" test in the rat.
The shuttle box equipment was used for passive avoidance as described in Experiment 2 with the following modifications: the compounds (or physiological solutions for the control group) were administered intraperitoneally (IP) 45 min before the training, whereas scopolamine (SCOP) was administered 30 min before the training. The foot shock (FS) consisted of a 0.2 mA shock of 5 sec duration.
The retest to determine memory was executed 24 h after the training. In each individual experiment, the following groups were used: a control group (-FS), a control group (+FS), a control group (FS+SCOP), 3 treatment groups with different doses of the product under test (FS+SCOP).

[6] = 5 min, 5 minutes, read-out: Decrease in immobility (as %) vs the controls
[7] = 0.1 mg/kg IP, rat, retest on the 4th day, 6 treatments
[8] = 1 mg/kg IP, rat, retest on the 4th day, 6 treatments
[9] = 10 mg/kg IP, rat, retest on the 4th day, 6 treatments
[10] = Mus musculus, po, 24 h, read-out: Reversal of the amnesia (% vs controls), as the increase in the Step Down Latency

In the case of `CC1(C)CCC(NC(=O)[C@H](N)CCC(=O)O)CC1` [Compound 24], the inhibition in vivo at 3 mg/kg [1, 6] is reported as 0%, the inhibition in vivo at 10 mg/kg [1, 6] is reported as 16% and the inhibition in vivo at 30 mg/kg [1, 6] is reported as 19%. For the same compound, the “Antidepressant activity (in words)” value ([1]; IP) was “inactive”, the “ED50 (dose antagonising immobility time by 50%)” value ([1]; IP) was “Inactive” and the change in vivo at 0.1 mg/kg [2, 7] was 8%. For the same compound, the change in vivo at 1 mg/kg [2, 8] was 0%, the change in vivo at 10 mg/kg [2, 9] was 0% and the “Activity in increasing the avoidance time (in words)” value ([2]; rat, IP, retest on the 4th day) was “inactive”. The IC50 [3] was greater than 1000 µM, the “Antiamnesic activity (in words)” value ([4]; OS, mouse) was “completely inactive” and the change in vivo at 0.1 mg/kg ([4]; po, 0.1 mg/kg OS, mouse, retest 24 h after training, read-out: Reversal of the amnesia (% vs controls), as the increase in the Step Down Latency) was 0%. For the same compound, the change in vivo at 1 mg/kg ([4]; po, 1 mg/kg OS, mouse, retest 24 h after training, read-out: Reversal of the amnesia (% vs controls), as the increase in the Step Down Latency) was 0% and the change in vivo at 10 mg/kg ([4]; po, 10 mg/kg OS, mouse, retest 24 h after training, read-out: Reversal of the amnesia (% vs controls), as the increase in the Step Down Latency) was 11%.

For `N[C@@H](CC(=O)O)C(=O)NCCC12CC3CC(CC(C3)C1)C2` [Compound 43], the inhibition in vivo at 1 mg/kg ([1]; 5 min, 1 mg/kg IP, 5 minutes, read-out: Decrease in immobility (as %) vs the controls) was 0%, the inhibition in vivo at 3 mg/kg [1, 6] was 34% and the inhibition in vivo at 10 mg/kg [1, 6] was 60%. For the same compound, the inhibition in vivo at 30 mg/kg [1, 6] was 93%, the “Antidepressant activity (in words)” value ([1]; IP) was “antidepressant effect of the same order of magnitude as the comparison drug used, amitriptyline” and the ED50 ([1]; IP, read-out: ED50 (dose antagonising immobility time by 50%)) was 6.4 mg/kg. For the same compound, the change in vivo at 0.1 mg/kg [2, 7] was 10%, the change in vivo at 1 mg/kg [2, 8] was 16% and the change in vivo at 10 mg/kg [2, 9] was 29%. For the same compound, the ED30 ([2]; IP, rat, read-out: ED30 (dose increasing the latency time (STL) by 30%)) was 16.9 mg/kg, the IC50 [3] was 33.5 µM and the “Antiamnesic activity (in words)” value ([4]; OS, mouse) was “less active”. For the same compound, the change in vivo at 0.3 mg/kg ([4]; po, 0.3 mg/kg OS, mouse, retest 24 h after training, read-out: Reversal of the amnesia (% vs controls), as the increase in the Step Down Latency) was 13%, the change in vivo at 3 mg/kg ([4]; po, 3 mg/kg OS, mouse, retest 24 h after training, read-out: Reversal of the amnesia (% vs controls), as the increase in the Step Down Latency) was 19% and the change in vivo at 30 mg/kg ([4]; po, 30 mg/kg OS, mouse, retest 24 h after training, read-out: Reversal of the amnesia (% vs controls), as the increase in the Step Down Latency) was 53%. The ED50 ([4]; po, OS, mouse, 60 min before training, read-out: ID50 (antiamnesic activity, dose inhibiting the amnesic effect of the ECS by 50%)) was 38.3 mg/kg.

`Nc1c2c(nc3ccccc13)CCCC2` [Tacrine, reference compound] gave a change in vivo at 0.1 mg/kg ([2]; Rattus norvegicus, ip) of 7%, a change in vivo at 1 mg/kg ([2]; Rattus norvegicus, ip) of 6% and a change in vivo at 10 mg/kg ([2]; Rattus norvegicus, ip) of 12%. For the same compound, the “Activity in increasing the avoidance time (in words)” value ([2]; rat, IP, retest on the 4th day) was “inactive”, the “% Effect vs controls” value ([5]; 0.3 mg/kg IP) was 0% and the “Latency (STL)” value ([5]; 0.3 mg/kg IP) was 59.7 s. For the same compound, the “% Effect vs controls” value ([5]; 1 mg/kg IP) was 41.1%, the “Latency (STL)” value ([5]; 1 mg/kg IP) was 73.1 s and the “% Effect vs controls” value ([5]; 3 mg/kg IP) was 49.2%. For the same compound, the “Latency (STL)” value ([5]; 3 mg/kg IP) was 75.3 s, the “% Effect vs controls” value ([5]; 10 mg/kg IP) was 64.8% and the “Latency (STL)” value ([5]; 10 mg/kg IP) was 79.5 s. It also gave an ED50 ([5]; Rattus norvegicus, ip, 24 h, read-out: ID50 (dose antagonizing the amnesic effect of scopolamine by 50%)) of 3.4 mg/kg, a change in vivo at 0.1 mg/kg [4, 10] of 10% and a change in vivo at 1 mg/kg [4, 10] of 9%. For the same compound, the change in vivo at 3 mg/kg [4, 10] was 20%, the change in vivo at 10 mg/kg [4, 10] was 9% and the “Antiamnesic activity (in words)” value ([4]; OS, mouse) was “inactive”.
